Source: article PMC11530827, “Characterization of a cytochrome P450 that catalyzes the O-demethylation of lignin-derived benzoates” (The Journal of Biological Chemistry, 2024)

Experiments:
[1] = molecular target: T1, PbdA R84M (Rhodococcus jostii, UniProt Q0SCI3, R82M); experiment: Activity and coupling assay of PbdA R84M variant with PbdB; assay type: biochemical, Rhodococcus jostii RHA1
T1 construct: hexaHis (N, cleaved yes); made in house; host or cells: PbdA variant: E. coli BL-21 λ (DE3); PbdB: Rhodococcus jostii RHA1
T1 sequence (Q0SCI3 entry or part of it R82M): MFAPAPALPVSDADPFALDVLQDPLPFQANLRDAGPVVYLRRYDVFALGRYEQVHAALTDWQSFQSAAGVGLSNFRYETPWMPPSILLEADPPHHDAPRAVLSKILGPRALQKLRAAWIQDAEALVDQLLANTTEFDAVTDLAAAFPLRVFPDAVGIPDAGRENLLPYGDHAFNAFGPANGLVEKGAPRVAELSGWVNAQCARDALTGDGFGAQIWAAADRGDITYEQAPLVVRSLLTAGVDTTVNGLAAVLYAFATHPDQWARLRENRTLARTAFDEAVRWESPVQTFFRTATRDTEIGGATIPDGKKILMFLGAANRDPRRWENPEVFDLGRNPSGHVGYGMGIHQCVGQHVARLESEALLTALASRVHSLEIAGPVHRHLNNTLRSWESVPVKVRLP
Experimental: (§1) For activity measurements 0.25 to 1 μM of PbdA and PbdB were combined in a 200 μl cuvette in 20 mM Mops, pH 7.2 with substrate diluted in the same buffer. NADH was added to 350 μM to initiate the reaction. For HPLC analysis, enzymatic reactions were acidified by adding acetic acid to 10% final concentration, centrifuged (16,000×g for 10 min), and filtered through a 0.2 μm polytetrafluoroethylene membrane. Samples were run over a Luna 5 μm C18(2) 100 Å 150 × 3 mm column (Phenomenex) at 0.7 ml min^−1 by a Waters 2695 separation HPLC module. Samples were eluted with a 16.8 ml linear gradient from 1% methanol plus 0.1% formic acid in water to 100% methanol plus 0.1% formic acid and monitored at 280 nm with a Waters 2996 photodiode array detector. Concentrations were determined by interpolation on a standard curve of 0 to 1 mM of authentic standard. NADH concentration was measured by absorbance at 340 nm, ε = 6.22 mM^-1 cm^-1. Coupling was calculated from the ratio of rate of aromatic turnover, as determined by HPLC, and the rate of NADH oxidation, determined spectroscopically. Buffer ionic strength was adjusted by addition of NaCl, as appropriate. Apparent steady-state kinetic parameters were calculated by fitting Michaelis–Menten equations to initial velocity of reactions at various concentrations of aromatic substrate (LEONORA).
(§2) ^aExperiments were performed using air-saturated MOPS (I = 0.1 M), pH 7.2, at 25 °C. The rate of aromatic substrate turnover was based on the appearance of O-demethylated product. Standard deviation is shown in parentheses.

[2] = molecular target: T2, PbdA S237A (Rhodococcus jostii, UniProt Q0SCI3, S235A); experiment: Substrate binding to PbdA S237A variant by spectral titration; set-up: species or system Rhodococcus jostii RHA1
T2 construct: hexaHis (N, cleaved yes); made in house; host or cells: PbdA variant: E. coli BL-21 λ (DE3); PbdB: Rhodococcus jostii RHA1
T2 sequence (Q0SCI3 entry or part of it S235A): as the sequence (Q0SCI3 entry or part of it R82M) above, with M82R, S235A counted along it
Experimental: (§3) UV-visible spectroscopy was conducted with a Cary 60 spectrophotometer equipped with a thermostatted cuvette holder at 25 °C. Scans of purified proteins diluted in 20 mM Mops, I = 0.1 M, pH 7.2 were taken between 250 and 700 nm. Heme concentration was calculated as described previously ([35]). Carbon monoxide binding was determined by reduction of PbdA diluted in 20 mM Mops, I = 0.1 M, pH 7.2 as above by a few grains of […]. CO was bubbled into the reduced enzyme for approximately 60 s at a rate of one bubble per second. Dissociation constants (Kd) were determined by titration of ligands diluted into enzyme buffer from 1 M stocks prepared in dimethyl sulfoxide into PbdA diluted in 20 mM Mops, I = 0.1 M, pH 7.2. Spectra take upon addition of substrate were subtracted from the spectrum of the enzyme, and peak-to-trough distance was plotted by ligand concentration. Kd values were determined by fitting a hyperbolic equation to the data as described previously ([23], [36]). The proportion of high-spin heme iron was determined using the approximate peak-to-trough extinction coefficient (ε ≈ 100 mM^−1 cm^−1) ([36]).

[3] = molecular target: T3, PbdA S87A/S237A (Rhodococcus jostii, UniProt Q0SCI3, S235A/S85A); experiment: Activity and coupling assay of PbdA S87A/S237A variant with PbdB; assay type: biochemical, Rhodococcus jostii RHA1
T3 construct: hexaHis (N, cleaved yes); made in house; host or cells: PbdA variant: E. coli BL-21 λ (DE3); PbdB: Rhodococcus jostii RHA1
T3 sequence (Q0SCI3 entry or part of it S85A/S235A): as the sequence (Q0SCI3 entry or part of it R82M) above, with M82R, S85A, S235A counted along it
Experimental: as §1, §2

[4] = molecular target: T4, PbdA (Rhodococcus jostii, UniProt Q0SCI3); experiment: Substrate binding to PbdA (WT) by type I spectral shift titration; set-up: hexaHis (N, cleaved yes); made in house; host or cells: PbdA: E. coli BL-21 λ (DE3); PbdB: Rhodococcus jostii RHA1; settings: WT PbdA
T4 sequence (Q0SCI3 1-400): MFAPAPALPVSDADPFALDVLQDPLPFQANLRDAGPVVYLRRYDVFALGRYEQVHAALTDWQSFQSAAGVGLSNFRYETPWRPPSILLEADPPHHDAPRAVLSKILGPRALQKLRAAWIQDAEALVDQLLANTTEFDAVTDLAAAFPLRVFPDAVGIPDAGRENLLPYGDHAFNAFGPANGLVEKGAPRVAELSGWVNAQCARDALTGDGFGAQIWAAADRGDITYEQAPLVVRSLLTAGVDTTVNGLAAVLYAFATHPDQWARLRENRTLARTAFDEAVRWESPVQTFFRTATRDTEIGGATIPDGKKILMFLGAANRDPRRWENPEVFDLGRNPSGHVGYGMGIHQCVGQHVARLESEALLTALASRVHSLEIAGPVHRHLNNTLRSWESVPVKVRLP
Experimental: The affinity of PbdA for various LDACs was measured by the type I spectral shift upon titration of aromatic compound (Fig. 2). This shift occurs as the compound displaces a water coordinated to the heme iron, initiating a spin state transition in the latter from a low spin, hexacoordinate, to a high spin, pentacoordinate form.
Figure 2 Substrate binding of PbdA. A, difference spectra of PbdA titrated with 1 to 50 μM p-MBA from the substrate-free enzyme. Darker colors indicate higher concentration of p-MBA. Spectra were collected after each addition of substrate to 1 μM enzyme in 20 mM Mops, I = 0.1 M, pH 7.2. B, binding isotherm of PbdA and p-MBA. The fitted curve represents a simple hyperbola. p-MBA, para-methoxybenzoate.
as §3

[5] = molecular target: T5, PbdA S87A (Rhodococcus jostii, UniProt Q0SCI3, S85A); experiment: Activity and coupling assay of PbdA S87A variant with PbdB; assay type: biochemical, Rhodococcus jostii RHA1
T5 construct: hexaHis (N, cleaved yes); made in house; host or cells: PbdA variant: E. coli BL-21 λ (DE3); PbdB: Rhodococcus jostii RHA1
T5 sequence (Q0SCI3 entry or part of it S85A): as the sequence (Q0SCI3 entry or part of it R82M) above, with M82R, S85A counted along it
Experimental: as §1, §2

[6] = molecular target: T3, PbdA S87A/S237A; experiment: Substrate binding to PbdA S87A/S237A variant by spectral titration; set-up: species or system Rhodococcus jostii RHA1
Experimental: as §3

[7] = molecular target: T5, PbdA S87A; experiment: Substrate binding to PbdA S87A variant by spectral titration; set-up: species or system Rhodococcus jostii RHA1
Experimental: as §3

[8] = air-saturated MOPS (I = 0.1 M), pH 7.2, 25 °C
[9] = appearance of O-demethylated product

## COc1ccc(C(=O)O)cc1 [p-MBA, p-methoxybenzoate]
[1]
  Coupling: 70 (9) %
[1]; O-demethylation
  Specific activity: 1100 (200) U μg P450^-1
[1]; [8]
  NADH depletion rate: 1700 (200) U mg P450^-1
[1]; [9]
  Rate of Aromatic turnover: 1100 (200) U mg P450^-1
[2]
  Kd: 29 µM
[2]; S237A variant, binding energy
  ΔG°: -6.2 kcal/mol
[2]; S237A variant, comparison of ΔG° of variant to wild type
  ΔΔG°: 1.2 kcal/mol
[3]
  Coupling: 40 (2) %
[3]; O-demethylation
  Specific activity: 180 (10) U μg P450^-1
[3]; [8]
  NADH depletion rate: 400 (30) U mg P450^-1
[3]; [9]
  Rate of Aromatic turnover: 170 (10) U mg P450^-1
[4]; 20 mM Mops, I = 0.1 M, pH 7.2, 25 °C, SD in parentheses, read-out: Kd
  Kd: 3.8 µM
[4]; on substrate binding
  %High-spin (percent of heme iron in high-spin state): >99%
[5]
  Coupling: 45 (7) %
[5]; O-demethylation
  Specific activity: 800 (200) U μg P450^-1
[5]; [8]
  NADH depletion rate: 1700 (200) U mg P450^-1
[5]; [9]
  Rate of Aromatic turnover: 800 (200) U mg P450^-1
[6]
  Kd: 70 µM
[6]; S87A/S237A variant, binding energy
  ΔG°: -5.7 kcal/mol
[6]; S87A/S237A variant, comparison of ΔG° of variant to wild type
  ΔΔG°: 1.7 kcal/mol
[7]
  Kd: 50 µM
[7]; S87A variant, binding energy
  ΔG°: -5.9 kcal/mol
[7]; S87A variant, comparison of ΔG° of variant to wild type
  ΔΔG°: 1.5 kcal/mol
